Drawing on paper PMC6934184, “Selective DNA-PKcs inhibition extends the therapeutic index of localized radiotherapy and chemotherapy” (The Journal of Clinical Investigation, 2019), this text covers inhibition for 1 compound.

The target of this test is T1, CSNK2A2 (CK2 alpha 2) (Homo sapiens, UniProt P19784).
T1 construct: purchased Thermo Fisher Scientific (Life Technologies) SelectScreen
The test can be described thus: SelectScreen Z'LYTE. Format: biochemical. The gist of the method: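 Compound tested in SelectScreen activity assays, Z'LYTE for CSF1R, CDK1/cyclin B and MAP2K6 and Adapta for CAMK1. ATP for CAMK1 was listed as 10, and Km app was used for CSF1R. Results are expressed in percent.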

T1 sequence (P19784 whole entry): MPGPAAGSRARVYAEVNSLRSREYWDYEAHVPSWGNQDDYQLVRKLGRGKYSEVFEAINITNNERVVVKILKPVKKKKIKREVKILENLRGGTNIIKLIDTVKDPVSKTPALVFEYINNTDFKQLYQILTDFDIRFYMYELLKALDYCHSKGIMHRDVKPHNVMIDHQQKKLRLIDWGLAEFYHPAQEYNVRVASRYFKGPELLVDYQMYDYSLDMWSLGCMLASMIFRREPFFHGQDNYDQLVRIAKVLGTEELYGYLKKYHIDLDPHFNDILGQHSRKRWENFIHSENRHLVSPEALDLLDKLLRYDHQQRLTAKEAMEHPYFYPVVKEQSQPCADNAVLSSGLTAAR

As a reminder, the inhibition is how much of the control response was suppressed. As to `CN(C(=O)CN1CCOCC1)c1ccc2sc3c(-c4cccc5c(=O)cc(N6CC7CCC(C6)O7)oc45)cccc3c2c1` [NU5455], testing at 1 µM gave an inhibition of 8.7%.
